Results from ChEMBL document CHEMBL3507680, “University of Dundee, Gates Library screen for HepG2 cell viability”.

Assay: Human HepG2 cell viability assay in 384 well format
Type: toxicity, cell-based
Parameters: dose 125 nL, time 70.5 hour; concentration not given beside the values
Conditions: HepG2 cells, read-out: Inhibition

| SMILES | cytotoxicity at 70.5 h [%] |
| --- | --- |
| c1cncc(CN2CCN3C[C@H](Oc4cncnc4)C[C@H]3C2)c1 | -5.49 |
| CN(Cc1nnc(C2CC2)n1C)C1CCN(Cc2nccn2C)C1 (stereo not drawn) | 2.78 |
| O=S(=O)(NC[C@H]1C[C@@H]2CCN1C[C@@H]2CN1CCOCC1)c1ccccc1 | -0.151 |
| CCc1oc(C(=O)NC(C)Cc2cnccn2)cc1CN1CCCC1 (stereo not drawn) | -14.2 |
| CC(=O)NC1CCN(c2cc(-c3ccccc3)nc3c(C)c(C)nn23)C1 (stereo not drawn) | -2.22 |
| CC(C)c1ccc2c(c1)C1(CC(=O)Nc3[nH]ncc31)C(=O)N2C (stereo not drawn) | -19.6 |
| COCCn1cnc2ccc(NC(=O)c3ccccn3)cc2c1=O | -9.53 |
| O=C(CCc1ccccn1)N1CCCN(C(=O)CC2CCCC2)CC1 | 4.27 |
| O=C(CCNC(=O)C1CCCC1)NCc1ccccc1Cn1cncn1 | -7.76 |
| O=C(c1ccno1)N1CCO[C@]2(CCC[C@@H]2COCc2ccncc2)C1 | -2.51 |
| Cc1cnc2n(c1=O)C(CC(=O)NCc1cccnc1)CS2 (stereo not drawn) | -0.178 |
| COc1cccc(OCC(=O)NS(=O)(=O)c2cccnc2)c1 | -3.41 |
| COC(=O)c1cccc(CN(C)Cc2ncnn2C)c1C#N | 28.8 |
| CS(=O)(=O)NCC1CCCN(C(=O)c2cc3ccccc3o2)C1 (stereo not drawn) | -3.7 |
| Cc1nc(NC(=O)N(C)Cc2ccoc2)nn1C | -4.45 |
| CCn1c(C)cc(C(=O)N2CCCC(c3nc(C)no3)C2)c1C (stereo not drawn) | -3.95 |
| CN(Cc1noc(C2CC2)n1)C1CCN(Cc2ccncc2)C1 (stereo not drawn) | -9.86 |
| CNc1nc(CS(=O)(=O)c2ccccc2)cs1 | -7.87 |
| Cc1ccc(C(=O)NC2CCOc3ccccc32)cc1S(C)(=O)=O (stereo not drawn) | 27.5 |
| CN1CCCN(Cn2nc(-c3ccccc3F)ccc2=O)CC1 | -5.91 |
| O=c1cc(-c2cccnc2)nc(-c2ccc(CN3CC[C@H](O)C3)cc2)[nH]1 | 9.56 |
| COCC(=O)N1CC[C@@H]2O[C@@H](COCc3csc(C)n3)CC[C@@H]21 | 4.53 |
| O=C(NCCNC(=O)c1scnc1Cl)c1ccccc1Cl | -8.93 |

| SMILES | cytotoxicity at 70.5 h [%] |
| --- | --- |
| O=C(Cn1c(=O)n(Cc2ccco2)c2ncccc21)NC1CCCCC1 | 38.5 |
| CC(C)[C@H]1CN(c2cnccn2)C[C@@H]1NC(=O)C1(C#N)CCOCC1 | -6.21 |
| CN(C)CCO[C@H]1C[C@@H](O)C12CCN(c1ncccc1Cl)CC2 | -5.24 |
| O=C(Cc1ccsc1)N1CCCC(CNS(=O)(=O)Cc2ccccc2)C1 (stereo not drawn) | -9.34 |
| Cc1ccc(C(CCNCCN(C)C)C2CCOC(C)(C)C2)cc1 (stereo not drawn) | -5.89 |
| CN(C)CCN1CCC(CNCc2c[nH]nc2C(C)(C)C)CC1 | 28.4 |
| CN(C)CCNC(=O)c1noc2c1CN(C(=O)N(C)C)CC2 | -6.62 |
| CC(C)n1c2ccccc2c2c1cc(C(=O)NC1CC1)n2C(=O)N(C)C | 1.81 |
| Clc1cccc(N2CCC(NCc3cc[nH]n3)C2)c1 (stereo not drawn) | 3.22 |
| Cc1ccc(CNC(=O)c2cc(Cn3ccnc3C(C)C)[nH]n2)o1 | 20.2 |
| CN(C)C(=O)N1CCC2(CC(=O)N(c3ccc4c(c3)OCO4)C2)C1 (stereo not drawn) | 1.41 |
| CC1(C)CN(C(=O)c2ccc3nncn3c2)CCS1 | -5.72 |
| Nc1nccc(N2CCC(Cc3ccccc3Cl)(C(=O)O)CC2)n1 | -2.75 |
| O=C(CCn1cccn1)NCC(c1cccs1)N1CCCC1 (stereo not drawn) | -5.3 |
| Cc1cc(N(Cc2cccnc2)C2CC2)n2nc(C(F)(F)F)nc2n1 | 9.82 |
| NC(=O)C1(CCCc2cccnc2)CCCN(c2ncccn2)C1 (stereo not drawn) | -13.9 |
| c1cnc(N2CCC(c3n[nH]c4ncccc34)C2)nc1 (stereo not drawn) | -7.93 |
| CCOc1ccnc(N2CCN(CCOC)CC2)n1 | -5.63 |
| O=C(c1cccnc1)N1CCN2C[C@H](Oc3cncnc3)C[C@H]2C1 | -1.31 |
| COCCN1CCC(N(Cc2noc(C3CC3)n2)C(C)=O)C1 (stereo not drawn) | 10.7 |
| Cc1cccc(-c2noc([C@@H]3C[C@@H](O)CN3CC3CCCCC3)n2)c1 | -1.98 |
| CCN(Cc1ccc(-c2ccccn2)cc1)C1CCS(=O)(=O)C1 (stereo not drawn) | -1.78 |
| c1cncc(CN2CCC(c3ccc4c(c3)OCO4)CC2)c1 | 19.4 |

| SMILES | cytotoxicity at 70.5 h [%] |
| --- | --- |
| COC(=O)NCCCC(=O)NC1(c2cccc(Cl)c2)CC1 | -6.46 |
| CN1C(=O)CC(c2ccccc2)C12CCN(CC1CC1)CC2 (stereo not drawn) | -11.2 |
| Cc1cc(NC(=O)NCC(CC(C)C)N2CCOCC2)n(C)n1 (stereo not drawn) | 2.74 |
| OC(CNCCn1cccn1)c1cccc(Br)c1 (stereo not drawn) | -8.75 |
| COc1cccc(-c2cnnc(N(C)CCC3CCCCO3)n2)c1 (stereo not drawn) | 0.0165 |
| CSCC[C@@H]1CN2CCC[C@H]2CN1Cc1cn(C)nc1C | 19.2 |
| CC(C)COC(C)C(=O)N1CCCC1 (stereo not drawn) | -7.16 |
| CC(C)(CN1CCC2(CCCNC2)C1)N1CCOCC1 (stereo not drawn) | 8.57 |
| Cc1cccc(N2CCC(NC(C)c3cccs3)CC2)n1 (stereo not drawn) | 10.3 |
| Cc1csc(C2CCCCN2C(=O)c2cc(C(C)C)[nH]n2)n1 (stereo not drawn) | 1.99 |
| CCn1nc(C)cc1C(=O)N1CCC(Nc2ccc(C)nn2)CC1 | -85.5 |
| O=C(c1ccncc1)N1CCc2c(COCC3CC3)cncc2C1 | 0.493 |
| CCOCC1CN(CCc2ccccc2)Cc2c1cnn2C (stereo not drawn) | 10.7 |
| CN(C)C(C(=O)N1CCN(C(=O)c2ccc[nH]2)CC1)c1ccc(F)cc1 (stereo not drawn) | 9.68 |
| CCC(=O)Nc1cccc(C(=O)NCCC2=CSC3=NCCCN23)c1 | -7.59 |
| Cc1ccc(CN2CC[C@@H]3[C@@H](CO[C@H]3CN3CCN(C)CC3)C2)cc1 | -0.515 |
| COCCN1C[C@@H]2[C@@H](OC)CCN(S(=O)(=O)c3cccnc3)[C@@H]2C1 | -12.3 |
| COCCN1CCC(CNCc2c[nH]nc2C(C)(C)C)CC1 | 24.7 |
| Cc1cnc(NC2CCN(CC(=O)Nc3ccccc3)CC2)nc1C | 2.9 |
| CCOc1cccc(C2CC(=O)NCc3nc(N)sc32)c1 (stereo not drawn) | -11.2 |
| Cc1ccc(C(=O)N2C[C@@H](OCC3CCOCC3)[C@H]3OCCC[C@H]32)o1 | -27.2 |
| Fc1ccc(CN2CCCC(c3nnc(-c4cnccn4)o3)C2)cc1F (stereo not drawn) | 0.0269 |
| CCOC(C)c1noc(CN(C)C(=O)c2cc3ccccn3c2)n1 (stereo not drawn) | -3.99 |

| SMILES | cytotoxicity at 70.5 h [%] |
| --- | --- |
| CCN(C)c1ncnc2c1CCN(C(=O)NCc1cccnc1)CC2 | 0.595 |
| COc1nccnc1N1CCC(C(=O)O)(n2ccc(C(C)(C)C)n2)CC1 | -10.8 |
| COc1ccccc1[C@@H]1CN(Cc2cnn(C)c2C)C[C@H]1C(=O)O | 7.39 |
| O=C(Nc1nncs1)N1CCC(c2ccc(O)cc2)CC1 | -4.31 |
| COCCN(Cc1ccc(F)cc1Cl)C(=O)c1ccncc1 | -6.63 |
| CC(=O)Nc1ccc(C(=O)N(C)C(C)Cc2cc(C)ccn2)cn1 (stereo not drawn) | 1.81 |
| COc1ncccc1C(=O)NC1(c2cccc(F)c2)CCOCC1 | 22.6 |
| Cn1cccc1C(=O)NCc1cnc2n1CCN(CC1CCOCC1)C2 | -3.17 |
| CCS(=O)(=O)N1CCN(c2cc(-n3cnc(C)c3C)nc(C)n2)CC1 | -2.19 |
| Cc1cc2c(c(=O)n1CCC(=O)O)C=CC(C)(C)O2 | -2.47 |
| CN(C)C(=O)C1(C)CN(Cc2cn(C)c3ccc(F)cc23)CCO1 (stereo not drawn) | 9.86 |
| CN(C)CCn1c(=O)oc2ccc(NC(=O)N3CCCCCC3)cc21 | 35.5 |
| CSCC(=O)NC(Cc1ccc(C)cc1)c1ccccn1 (stereo not drawn) | 0.833 |
| CC(C)c1nnc2n1CCN(Cc1cccc3c1OCCO3)C2 | 30 |
| Cn1ccc2c(-c3cc(N)nc(N4CCOCC4)n3)ccnc21 | 1.46 |
| CCCc1cc(N2CCC(NCC3(O)CCN(C)CC3)CC2)nc(C)n1 | -6.43 |
| CC(=O)Nc1ccc(C(=O)NCCCn2cccc2)cc1 | -14.1 |
| Cc1ncc(CN2CCc3nc4cc(C(C)(C)C)nn4c(O)c3C2)n1C | 7.3 |
| Cc1cccc(CNCCOc2ccc(S(C)(=O)=O)cc2)c1 | -0.853 |
| CNC(=O)[C@@H]1C[C@@H](n2cc(-c3ccc(CN4CC=CC4)cc3)nn2)CN1 | -9.45 |
| CC(C)(C)c1ncc2c(n1)CN(C(=O)c1ccc(C#N)nc1)C2 | 11.4 |
| CN(C)S(=O)(=O)N1CCN(c2ccnc(N3CCCCC3)n2)CC1 | -8.18 |
| Cc1cc(NC(=O)CCn2nc(C)c3ccccc32)n(C(C)C)n1 | -18 |

| SMILES | cytotoxicity at 70.5 h [%] |
| --- | --- |
| Cn1ncc2c1C(COCC1CC1)CN(C(=O)c1cscn1)C2 (stereo not drawn) | -7.06 |
| Nc1nc2c(c(NC(=O)Nc3cccc(Cl)c3)n1)CCCC2 | 13.3 |
| O=C(c1ccc(Cn2cc(Br)cn2)cc1)N1CCCC1 | 30.7 |
| COc1ccc(CCC2CCCCN2)cc1 (stereo not drawn) | 24.2 |
| CC(C)Oc1cccc(Cc2nc3c([nH]2)CCCNC3=O)c1 | -4.78 |
| CC(C)(C)C(=O)NCCNc1cc(N2CCCC2)ncn1 | -8.01 |
| CCN(C)S(=O)(=O)N1C[C@@H]2CC[C@H](C1)N(Cc1cscn1)C2=O | -8.95 |
| CCNC(=O)NCc1ccccc1NS(=O)(=O)c1ccccc1 | -10.5 |
| CC(C)COCC(NC(=O)c1cccnc1)c1ccco1 (stereo not drawn) | -9.01 |
| O=c1[nH]cnc2[nH]c(N3CCOCC3)nc12 | 26.5 |
| Cn1c(CN2CCCCC2)cc(=O)c(O)c1CN1CCCCC1 | 2.14 |
| O=C(O)CCNC(=O)C1(c2cccc(Br)c2)CCOCC1 | -0.861 |
| COc1ccc(C(C)NC(=O)c2nn(C)c(C)c2Br)cc1 (stereo not drawn) | -2.4 |
| COc1cc(Cl)ccc1C(=O)N1CCCC(n2nc(C)nc2C)C1 (stereo not drawn) | -0.226 |
| O=C(c1cc(C2CC2)on1)N1CCCC(n2cccn2)C1 (stereo not drawn) | 23.8 |
| NC(=O)CCSc1n[nH]c(-c2ccc3c(c2)CCC3)n1 | -1.76 |
| Cc1[nH]ccc1C(=O)N(C)C1CC(=O)N(Cc2ccccc2)C1=O (stereo not drawn) | -2.82 |
| CN(Cc1cnn(C)c1)C(=O)c1ccc(Cl)c(N2CCNC2=O)c1 | -22.2 |
| Fc1cc(CN2CCOC3(CCOCC3)C2)ccc1Cl | -1.5 |
| N#Cc1cc(F)ccc1CN1CCCC1Cn1cccn1 (stereo not drawn) | -5.11 |
| CCc1c(O)nc(SCC(=O)N(CC)CC)n(C(C)CC)c1=O (stereo not drawn) | -0.0297 |
